Experimental data as given in patent US6432976B1, “8-aza-bicyclo[3.2.1]octane NMDA/NR2B antagonists” (Merck & Co., Inc., priority 1999, dated 2002).
Counter-ions that a name gives are not always drawn.

Row | SMILES | melting point [°C]
1 | OC1C(Cc2ccccc2)CC2CCC1N2Cc1nc2ccccc2[nH]1 (racemic) | 208 to 209
2 | COC1C(Cc2ccccc2)CC2CCC1N2Cc1nc2ccccc2[nH]1 (racemic) | 172 to 173
3 | OC1C(Cc2ccccc2)CC2CCC1N2Cc1nc2ccccc2[nH]1 (racemic) (as salt: hydrochloride) | 234 to 236
4 | COC1C(Cc2ccccc2)CC2CCC1N2Cc1nc2ccccc2[nH]1 (racemic) (as salt: hydrochloride) | 222 to 226
